Source: US11517554B2, “Method for preventing or treating Alzheimer's disease” (OLATEC THERAPEUTICS LLC, priority 2018, dated 2022)

What was measured:
[1] = tested on: AIM2 inflammasome pathway; test: In vitro screening: cytokine production via AIM2 inflammasome pathway; assay type: cell-based
[2] = tested on: NLRC4 inflammasome pathway; test: In vitro screening: cytokine production via NLRC4 inflammasome pathway; assay type: cell-based
pro-IL-1 = test: In vitro screening: inhibition of pro-IL-1; assay type: cell-based
Protocol: (§1) To investigate potential off-target activity of dapansutrile, secondary pharmacological effects were assessed through in vitro screening assays. […] An evaluation of 68 critical transmembrane and soluble receptors, ion channels and monoamine transporters were performed for off-target effects of dapansutrile. An additional 69 receptors and enzymes were evaluated with dapansutrile for potential activity in a follow-on study that focused on enzymes involved in inflammatory cascades. A single identified target, the PDE4 enzyme, was inhibited in a concentration range of ≥100 μM (13 μg/mL) and was dose-responsive for effect, but subsequent studies were not conclusive.

pro-IL-18 = test: In vitro screening: inhibition of pro-IL-18; assay type: cell-based
Protocol: as §1

PDE4 enzyme = test: Off-target screening: PDE4 enzyme inhibition; assay type: biochemical
Protocol: as §1

COX-1 = COX-1 (Homo sapiens, UniProt P23219); test: Off-target screening: COX-1; assay type: biochemical; details: screening assay
Chain of COX-1 (P23219 24-599): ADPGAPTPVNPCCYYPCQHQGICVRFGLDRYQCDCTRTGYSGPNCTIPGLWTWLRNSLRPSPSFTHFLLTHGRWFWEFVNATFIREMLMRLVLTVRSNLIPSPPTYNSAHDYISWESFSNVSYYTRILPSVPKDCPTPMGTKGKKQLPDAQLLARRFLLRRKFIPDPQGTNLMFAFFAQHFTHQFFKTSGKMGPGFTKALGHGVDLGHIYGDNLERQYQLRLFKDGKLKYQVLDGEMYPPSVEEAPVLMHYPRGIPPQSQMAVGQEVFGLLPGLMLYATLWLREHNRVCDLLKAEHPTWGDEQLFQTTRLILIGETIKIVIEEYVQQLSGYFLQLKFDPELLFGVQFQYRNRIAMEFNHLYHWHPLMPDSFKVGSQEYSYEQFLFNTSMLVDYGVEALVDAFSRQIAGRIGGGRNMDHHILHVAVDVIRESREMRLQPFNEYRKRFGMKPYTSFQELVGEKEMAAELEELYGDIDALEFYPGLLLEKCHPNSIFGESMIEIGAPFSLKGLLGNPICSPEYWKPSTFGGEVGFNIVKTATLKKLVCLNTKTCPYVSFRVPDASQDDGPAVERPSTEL
Protocol: as §1

COX-2 = target: T1, COX-2 (Homo sapiens, UniProt P35354); test: Off-target screening: COX-2; assay type: biochemical; details: screening assay
T1 sequence (P35354 18-604): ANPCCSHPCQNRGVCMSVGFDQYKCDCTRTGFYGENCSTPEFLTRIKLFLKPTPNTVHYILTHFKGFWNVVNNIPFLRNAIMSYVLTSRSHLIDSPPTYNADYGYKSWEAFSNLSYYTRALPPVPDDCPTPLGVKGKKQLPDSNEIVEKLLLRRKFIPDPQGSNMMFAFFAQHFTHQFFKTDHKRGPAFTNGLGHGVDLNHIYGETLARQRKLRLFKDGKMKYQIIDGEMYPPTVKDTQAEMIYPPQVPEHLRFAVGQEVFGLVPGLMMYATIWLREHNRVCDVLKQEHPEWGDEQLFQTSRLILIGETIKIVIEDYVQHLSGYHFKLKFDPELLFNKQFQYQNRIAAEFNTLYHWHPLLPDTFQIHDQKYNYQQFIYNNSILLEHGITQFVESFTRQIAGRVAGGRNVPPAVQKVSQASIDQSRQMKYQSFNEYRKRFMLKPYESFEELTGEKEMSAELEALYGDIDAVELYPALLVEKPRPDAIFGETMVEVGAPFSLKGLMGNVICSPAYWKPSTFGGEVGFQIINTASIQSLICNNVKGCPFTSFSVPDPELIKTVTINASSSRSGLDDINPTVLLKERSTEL
Protocol: as §1

opioid receptors = test: Off-target screening: opioid receptors; assay type: binding; details: screening assay
Protocol: as §1

[3] = tested on: 68 critical transmembrane and soluble receptors, ion channels and monoamine transporters; additional 69 receptors and enzymes; test: Off-target screening panels (68 receptors, ion channels, monoamine transporters; additional 69 receptors and enzymes); details: all targets other than PDE4
Protocol: as §1

IL-1β challenged mice = test: IL-6 and MPO levels after IL-1β intraperitoneal challenge in treated mice (ELISA); assay type: in vivo; details: 200 mg/kg, 8 injections over 4 days
Protocol: Mice were treated with 200 mg/kg dapansutrile (OLT1177™) for 8 injections over 4 days. Mice were trained on a rotarod on day 3. Twelve hours after the last injection, mice were run on the rotarod for distance. One hour after the rotarod, mice were challenged with 60 ng IL-1β intraperitoneally; mice were then sacrificed 4 hours later. Whole blood, plasma, brain, and lung of the mice were collected. Whole blood was cultured, plasma was frozen. Brain was processed for cytokine analysis. Each group had N=5. Ex vivo samples were obtained from the brain of mice treated with vehicle or dapansutrile and subjected to exhaustive exercise.

APP/PS1 mice [4] = test: Cytokine levels of brain homogenates of APP/PS1 mice (ELISA); assay type: in vivo; details: 3 months, vs control food
Protocol: (§2) In the study design, 6-month-old wild-type (WT), and AD transgenic APP/PS1[deltaE9] mice were treated with oral dapansutrile via feed pellets ad libitum (approximately 0, 50 or 100 mg/kg/day based on feed concentrations of 0, 3.75 or 7.5 g/kg and food consumption of 4 g/day) for the treatment duration of 3 months. At 9 months old, behavior testing of the mice was performed. In addition, the brains of the mice were extracted, and blood samples were collected. The brains of the mice from each group were performed for electrophysiological and neuronal morphological analysis, cytokine levels and other assays.
One hemisphere of each mouse was homogenized in STKM-buffer and centrifuged for 10 min at 4° C. with 13,000 g. The supernatant of the brain lysate was collected and measured for pro-inflammatory mediators IL-6 and IL-1β by ELISA by diluting the sample 1:2. […] The IL-1β levels were reduced in APP/PS1 mice treated with dapansutrile at a low dose (500 mg/kg/day, p value=0.0287) and a medium dose (1000 mg/kg/day, p value=0.0368) compared to APP/PS1 mice fed with control food (FIG. 2B)

APP/PS1 mice [5] = test: Morris water maze test in APP/PS1 mice; assay type: in vivo
Protocol: as §2
Spatial memory formation and retention were assessed using the Morris water maze (MWM) assay. A 10 cm escape platform was submerged 1 cm below the water surface into a circular plastic pool filled up with opaque water. Three visual cues were positioned on the walls around the pool. A digital camera was installed above the center of the maze. Images will be acquired and transmitted to a PC running the tracking software ANY-maze (ANY-maze). On the first three days (pre-training) the mice were trained using a visible platform (the platform was placed above the water surface).
To assess spatial memory formation, the mice were trained to locate the hidden platform for 8 consecutive days. The escape latency of each trial (4 per day with an interval of 3-5 min) was recorded and analyzed by the tracking software. At training day 3 and at day 9, memory retention was assessed in a probe trial performed by removing the platform and analyzing the search pattern used by each mouse for a fixed time of 45 seconds.
The escape latency which describes the time mice need to find the hidden platform was measured and was analyzed as the mean value of the 4 trials each day and shown in FIG. 3A; all genotypes decreased the escape latency from day 1 to day 8. For example, on day 5, wildtype mice (N=8) needed 23.59±4.08 seconds to reach the platform. APP/PS1 (500 mg/kg/day dapansutrile treated) mice (N=5) needed 37.31±4.96 seconds, and APP/PS1 (1000 mg/kg dapansutrile treated) mice (N=6) needed 21.30±3.19 seconds (p value=0.021), compared to APP/PS1 (control food) mice (n=6) needed 42.04±6.89 seconds.
To provide the evidence for cognitive learning 24 hours after the last training session, a reverence test was performed (probe trial) on training day 9. Here, mice were tested in the water maze without the platform to escape and the time was measured in which quadrant the mice spend their time. We compare the mean time in percentage of the three non-target quadrants (NT) to the time in percentage of the target quadrant (TQ, platform was located during training period). […] Whereas there was no preference for a TQ over NT in APP/PS1 (control food) and APP/PS1 500 mg/kg/day (low dose).

[6] = tested on: APP/PS1 mice hippocampal slices, Schaffer collateral CA3 to CA1 pathway; test: Long-term potentiation (LTP) in acute hippocampal slices of APP/PS1 mice; assay type: in vivo; details: for normalized mean LTP of last 5 minutes of recording: APP/PS1 mice, 55-60 min after TBS, APP/PS1 untreated 1.303, wildtype 1.553
Protocol: as §2
Given the observed recovery in the impaired learning and memory processes in APP/PS1 mice treated with 1000 mg/kg/day dapansutrile (Example 5), we were interested in determining whether hippocampal network function would be recovered following medium dose of dapansutrile administration. For this purpose, we analyzed synaptic plasticity at the Schaffer collateral pathway connecting the CA3 with the CA1 subfield, one of the most extensively studied synapses in the central nervous system. Long-term potentiation (LTP) as a cellular correlation of learning processes at the Schaffer collateral CA3 to CA1 pathway was induced by theta-burst stimulation (TBS) after 20 min of baseline recording.
Acute hippocampal slices were prepared from mice in four groups including wild-type, APP/PS1, APP/PS1 treated with 500 mg/kg/day and APP/PS1 treated with 1000 mg/kg/day of dapansutrile. Briefly, mice were deeply anesthetized with 100% CO2, killed, and then brains were quickly removed and transferred into ice-cold carbogenated (95% O2 and 5% CO2) artificial CSF (ACSF) solution. Afterward, the hippocampus was dissected and transverse hippocampal slices (400 μm) were obtained using a manual tissue chopper. The hippocampal slices were transferred to an interface recording chamber, where they were incubated at 32° C. with a constant flow rate (0.5 ml/min) of carbogenated ACSF for 2 h before the start of recordings. Field excitatory post synaptic potentials (fEPSPs) were recorded in the stratum radiatum of the CA1 region in hippocampal slices. Responses were evoked by stimulation of the Schaffer collateral pathway using two electrodes. These stimulation electrodes (S1 and S2) were positioned equidistantly on both sides of the recording electrode and, by this means, two independent stimulation pathways could be used for the same CA1 recording region. For recording fEPSPs (measured as the first slope function), the recording electrode was placed in the CA1 apical dendritic layer and signals were amplified by a differential amplifier and digitized. […] The slope of fEPSPs was measured over time for 60 min and normalized to the baseline. […]

[7] = exhaustive exercise, 60 ng IL-1β i.p., 4 hours later, vs vehicle

concentration range in which PDE4 enzyme was inhibited (PDE4 enzyme; dose-responsive, subsequent studies not conclusive): ≥ 100 µM
concentration range in which PDE4 enzyme was inhibited (PDE4 enzyme; same bound given in μg/mL): ≥ 13 µg/mL
direct effects on COX-1 (COX-1): no direct effects
direct effects on COX-2 (COX-2): no direct effects
interaction with opioid receptors (opioid receptors): no interaction
other effects in the screening assays [3]: No other effects were noted
SMILES: CS(=O)(=O)CCC#N [dapansutrile, 3-Methanesulfonylpropionitrile]
inhibitory effect on cytokine production via the AIM2 inflammasome pathway [1]: no inhibitory effect
inhibitory effect on cytokine production via the NLRC4 inflammasome pathway [2]: no inhibitory effect
inhibition of pro-IL-1 (pro-IL-1): no inhibition
inhibition of pro-IL-18 (pro-IL-18): no inhibition
level of systemic IL-1β after IL-1β stimulation (IL-1β challenged mice; data not shown): also reduced
level of systemic IL-6 after IL-1β stimulation (IL-1β challenged mice; data not shown): also reduced
level of systemic MPO after IL-1β stimulation (IL-1β challenged mice; data not shown): also reduced
IL-6 level in the brain (IL-1β challenged mice; [7]): reduced levels
myeloperoxidase (MPO) level in the brain (IL-1β challenged mice; [7]): reduced levels
IL-1β levels in brain lysate (APP/PS1 mice [4]; 500 mg/kg/day oral via feed, p value=0.0287): reduced
IL-6 levels in brain lysate (APP/PS1 mice [4]; 1000 mg/kg/day oral via feed, p value=0.0035): reduced
IL-1β levels in brain lysate (APP/PS1 mice [4]; 1000 mg/kg/day oral via feed, p value=0.0368): reduced
escape latency (time to reach the hidden platform) (APP/PS1 mice [5]; 500 mg/kg/day, day 5, N=5, APP/PS1 control food 42.04±6.89, wildtype 23.59±4.08): 37.31 ± 4.96 s
preference for the target quadrant (TQ) over non-target quadrants (NT), probe trial (APP/PS1 mice [5]; 500 mg/kg/day, day 9): no preference
escape latency (time to reach the hidden platform) (APP/PS1 mice [5]; 1000 mg/kg, day 5, N=6, p value=0.021, APP/PS1 control food 42.04±6.89, wildtype 23.59±4.08): 21.30 ± 3.19 s
preference for the target quadrant (TQ) over non-target quadrants (NT), probe trial (APP/PS1 mice [5]; 1000 mg/kg/day, day 9, p value=0.0001): significant preference
LTP impairment in APP/PS1 mice ([6]; 1000 mg/kg/day): rescued
normalized mean LTP of last 5 minutes of recording ([6]; low dose (500 mg/kg/day), N=2, n=8): 1.198
normalized mean LTP of last 5 minutes of recording ([6]; medium dose (1000 mg/kg/day), N=1, n=7): 1.469
LTP deficit in APP/PS1 mice ([6]; low dose, 500 mg/kg/day): not able to improve
